Measurements as given in article PMC3262893 (Phytochemistry, 2011).
*1 amine or outer side, *2 acyl side, *3 side chain or, on linkers, in order; H or OH if unused. Where a SMILES comes first, the peptide text is derived from it. Bridges are numbered along the chain shown (N, C = ends). [ ]: non-standard residue; d: D form. ξ: configuration not given here. X3 = CC(=O)N(C)C(Cc1ccc(O)cc1)C(=O)OC(CC(O)C(O)CC(C)C)CC(N[*:2])C(O)C(=O)[*:1]; X2 = COc1ccc(CCC(N[*:1])C(=O)[*:2])cc1; d(aIle) = CC[C@H](C)[C@@H](N)C(=O)O; hTyr = N[C@@H](CCc1ccc(O)cc1)C(=O)O; hPhe = N[C@@H](CCc1ccccc1)C(=O)O; X1 = C/C=C(/N[*:1])C(=O)[*:2]; ξhPhe = NC(CCc1ccccc1)C(=O)O; NMeA = CN[C@@H](C)C(=O)O; CO = O=C([*:1])[*:2]

Target: 20S proteasome, human (Homo sapiens, UniProt P28074)
Assay: 20S proteasome assay
Format: biochemical
Settings: chymotrypsin-like activity; for 20S proteasome inhibitory activity: at 50 μM; for IC50: read-out: 20S proteasome inhibition IC50

| Structure (SMILES) | 20S proteasome inhibitory activity | IC50 [µM] |
| --- | --- | --- |
| CC[C@H](C)[C@@H]1NC(=O)[C@H](NC(=O)N[C@H](Cc2ccccc2)C(=O)O)CCCCNC(=O)[C@H](CCc2ccccc2)NC(=O)[C@H](C)N(C)C(=O)[C@H](CCc2ccc(O)cc2)NC1=O [compound 1, Lyngbyaureidamide A] ({dF-CO}-[dK]I[hTyr][NMeA][hPhe]; lactam 1-C) | not active |  |
| CC[C@H](C)[C@@H]1NC(=O)[C@H](NC(=O)N[C@H](Cc2ccccc2)C(=O)O)CCCCNC(=O)[C@H](Cc2ccccc2)NC(=O)[C@H](C)N(C)C(=O)[C@H](CCc2ccc(O)cc2)NC1=O [compound 2, Lyngbyaureidamide B] ({dF-CO}-[dK]I[hTyr][NMeA]F; lactam 1-C) | not active |  |
| C/C=C1/NC(=O)[C@H](CO)NC(=O)[C@@H]([C@@H](C)CC)NC(=O)[C@@H]2CCCN2C(=O)[C@@H]2CCCN2C(=O)CNC(=O)[C@H](CCC(N)=O)NC(=O)C(O)C(CC(CC(O)C(O)CC(C)C)OC(=O)C(Cc2ccc(O)cc2)N(C)C(C)=O)NC(=O)[C@@H]2CCCN2C(=O)C(CCc2ccc(OC)cc2)NC(=O)[C@H]([C@@H](C)O)NC1=O (stereo partly shown) [compound 3, Lyngbyazothrin C] (QGPP[d(aIle)]S[X1]T[X2]P; linker N-C via X3) |  | 7.1 |
| C/C=C1/NC(=O)[C@H](CO)NC(=O)[C@@H]([C@@H](C)CC)NC(=O)[C@@H]2CCCN2C(=O)[C@@H]2CCCN2C(=O)CNC(=O)[C@H](CCC(N)=O)NC(=O)C(O)C(CC(CC(O)C(O)CC(C)C)OC(=O)C(Cc2ccc(O)cc2)N(C)C(C)=O)NC(=O)[C@@H]2CCCN2C(=O)C(CCc2ccccc2)NC(=O)[C@H]([C@@H](C)O)NC1=O (stereo partly shown) [compound 4, Lyngbyazothrin D] (QGPP[d(aIle)]S[X1]T[ξhPhe]P; linker N-C via X3) |  | 19.2 |
